According to PubChem BioAssay (NCI):
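Where inhibition never reached the appropriate level, the endpoint shown equals the highest concentration tested. Otherwise, values were interpolated linearly from a five-concentration, 48-hour dose response in 96-well plates. Here, GI50 denotes the concentration required for 50% inhibition of growth. TGI marks complete inhibition of growth.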

Tests used:
Assay in all cases: NCI-60 cell line screen, 48 h
BT-549 breast = test system: BT-549 breast
NCI-H522 lung = test system: NCI-H522 lung
HL-60(TB) leukemia = test system: HL-60(TB) leukemia
HCC-2998 colon = test system: HCC-2998 colon
SN12C renal = test system: SN12C renal
KM12 colon = test system: KM12 colon
NCI-H460 lung = test system: NCI-H460 lung
SK-MEL-5 melanoma = test system: SK-MEL-5 melanoma
RPMI-8226 leukemia = test system: RPMI-8226 leukemia
T-47D breast = test system: T-47D breast

SMILES | GI50 (BT-549 breast) [µM] | TGI (BT-549 breast) [µM] | GI50 (NCI-H522 lung) [µM] | TGI (NCI-H522 lung) [µM] | GI50 (HL-60(TB) leukemia) [µM] | TGI (HL-60(TB) leukemia) [µM] | GI50 (HCC-2998 colon) [µM] | TGI (HCC-2998 colon) [µM] | GI50 (SN12C renal) [µM] | TGI (SN12C renal) [µM] | TGI (KM12 colon) [µM] | TGI (NCI-H460 lung) [µM] | TGI (SK-MEL-5 melanoma) [µM] | TGI (RPMI-8226 leukemia) [µM] | GI50 (KM12 colon) [µM] | GI50 (T-47D breast) [µM] | TGI (T-47D breast) [µM] | GI50 (NCI-H460 lung) [µM] | GI50 (SK-MEL-5 melanoma) [µM] | GI50 (RPMI-8226 leukemia) [µM]
O=C(COc1ccc(-c2nc3cc(Cl)c(Cl)cc3[nH]2)cc1)N=Nc1c(O)[nH]c2ccccc12 | 12.7 | 59 | 2.55 | > 100 | > 100 | > 100 | 1.35 | 3.75 | 3.85 | > 100 | – | – | – | – | – | – | – | – | – | –
Cc1cc(NS(=O)(=O)c2ccc(Nc3c4ccccc4nc4c(C(=O)Nc5ccc(S(=O)(=O)N=C(N)N)cc5)ccc(Cl)c34)cc2)no1 | – | – | – | 33.2 | – | 68.8 | – | > 100 | – | > 100 | > 100 | > 100 | > 100 | > 100 | – | – | – | – | – | –
N#C/C(=C\c1cccc2cnccc12)N1N=NC2C=CC=CC21 (stereo not drawn) | 2.97 | > 100 | 2 | > 100 | 3 | 24.3 | 4.32 | > 100 | 3.24 | > 100 | 32 | 32.7 | > 100 | – | 2.96 | 0.582 | 6.4 | 3.98 | 3.19 | –
COc1ccc(C(=O)OC2C(OC3C(O)COC(O[C@H]4C[C@H]5[C@@H]6CC=C7C[C@@H](O)CC[C@]7(C)[C@H]6CC[C@]5(C)[C@H]4[C@H](C)C(=O)CCC(C)C)C3OC(C)=O)OCC(O)C2O)cc1 (stereo partly drawn) | < 0.003 | 2.18 | < 0.003 | 0.0173 | – | – | 0.216 | 12.7 | 1.11 | 28.3 | 4.48 | 0.306 | 0.0204 | < 0.003 | 0.00399 | < 0.003 | 1.13 | < 0.003 | < 0.003 | < 0.003
Brc1ccc(C2SCc3nc4ccccc4n32)cc1 (stereo not drawn) | – | – | – | 12.4 | – | 12.4 | – | – | – | 27.7 | 21.1 | 27.3 | 12.5 | 28.6 | – | – | – | – | – | –
Oc1ccccc1C=Nc1ccccc1N=Cc1ccccc1O.[Cu+2] | 3.24 | 11.9 | 2.55 | 12.3 | – | – | 7.95 | 20.9 | 4.84 | 18.7 | 15 | 30 | 3.46 | 40.8 | 3.5 | 1.68 | 5.4 | 12.3 | 1.66 | 2.09
CCOC(=O)c1nc2cc(C(F)(F)F)ccc2[n+]([O-])c1C | > 100 | > 100 | > 100 | > 100 | > 100 | > 100 | > 100 | > 100 | > 100 | > 100 | > 100 | > 100 | > 100 | > 100 | > 100 | – | – | > 100 | > 100 | > 100
O=C(NC(=O)c1cc2cc(Br)cc(Br)c2oc1=O)Oc1ccccc1 | – | – | – | – | – | – | – | > 100 | – | > 100 | > 100 | > 100 | > 100 | > 100 | – | – | – | – | – | –
Cc1ccc(S(=O)(=O)SCc2ccccc2)cc1 | – | – | – | 20.9 | – | 5.76 | – | 57.4 | – | 50.4 | 57.6 | > 69.5 | 54.5 | 33.5 | – | – | – | – | – | –
CN1C(=O)C(=CN(C)c2ccccc2)C(=O)N(C)C1=O | – | – | – | – | – | > 100 | – | > 100 | – | > 100 | > 100 | > 100 | > 100 | > 100 | – | – | – | – | – | –
C#CC(=O)OCC#CCOC(=O)C#C | – | 36.6 | – | 9.81 | – | – | – | 39.6 | – | 82.3 | 44 | > 100 | > 100 | 34.3 | – | – | 60.2 | – | – | –
Cc1cc2c(cc1C)[n+](Cc1ccc3ccccc3n1)cn2Cc1ccc2ccccc2n1 | 1.32 | 3.2 | 0.704 | 2.47 | – | – | 1.27 | 2.73 | 0.792 | 2.17 | 2.06 | 2.21 | 1.59 | 1.62 | 0.568 | 0.393 | 2.93 | 0.63 | 0.471 | 0.301
CC12CC(Sc3ccccc3N1)c1ccccc1O2 (stereo not drawn) | – | – | – | – | – | 28.8 | – | 31 | – | 36 | 28.6 | 33.2 | 28 | 48 | – | – | – | – | – | –
O=C(Sc1sc(=S)sc1SC(=O)c1ccccc1)c1ccccc1 | – | – | – | > 100 | – | > 100 | – | > 100 | – | > 100 | > 100 | – | > 100 | > 100 | – | – | – | – | – | –
Cc1ccc(C(=O)N=Nc2c(O)[nH]c3ccc(Cl)cc23)cc1 | 25 | > 50 | 20.2 | > 50 | 38.7 | > 50 | – | – | 8.7 | 17.8 | > 50 | > 50 | > 50 | > 50 | > 50 | – | – | 15.1 | 23.7 | 5.74
CCCCN1CCN(c2ccc3nc(-c4ccc5nc(-c6ccc(OCC)c(OCC)c6)[nH]c5c4)[nH]c3c2)CC1 | – | – | 1.2 | 3.97 | 0.704 | 3.18 | – | – | – | – | 2.99 | 1.86 | 3.16 | 2.06 | 1.42 | 1.36 | 7.88 | 0.533 | 1.09 | 0.436
COc1ccc(C#CC2=C(c3cc(OC)c(OC)c(OC)c3)C(=O)OC2)cc1 | 2.13 | 15.7 | 8.6 | > 50 | 4.48 | > 50 | – | – | – | – | 27.4 | > 50 | 11.9 | 3.56 | 1.63 | – | – | 6.65 | 2.07 | 1.21
Cc1cc2c(=O)cc(-c3ccc(F)cc3)oc2c(C(=O)O)c1C | – | – | – | > 100 | – | – | – | – | – | > 100 | > 100 | > 100 | > 100 | > 100 | – | – | – | – | – | –
Cc1cc2c(=O)[nH]c(N)nc2nc1C | – | > 100 | – | > 100 | – | > 100 | – | – | – | > 100 | > 100 | > 100 | > 100 | > 100 | – | – | > 100 | – | – | –
